What was measured:
ΔF508-CFTR [1] = target: T1, ΔF508-CFTR (Homo sapiens, UniProt P13569, DEL508-508); experiment: CFTR cell surface levels using HRP-tagged ΔF508-CFTR expressing CFBE cells, intrinsic corrector capacity; assay type: cell-based; parameters: % Activation: concentration or dose not given beside the values
T1 construct: host or cells: CFBE41o-, doxycycline-inducible
Summary of the method: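 Surface ΔF508-CFTR was measured as HRP chemiluminescence from an extracellular-loop-4 tag, expressed as percent activity between DMSO and a […] corrector control.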

ΔF508-CFTR [2] = target: T1, ΔF508-CFTR; experiment: CFTR cell surface levels using HRP-tagged ΔF508-CFTR expressing CFBE cells, in the presence of a co-corrector; assay type: cell-based
Summary of the method: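 Chemiluminescent read-out of surface HRP (15 min, dark) after PBS washes. Activity is normalized as 100×(sample−DMSO)/(3 μM co-corrector alone−DMSO).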

[3] = HRP-tagged ΔF508-CFTR expressing CFBE41o- cells, compound alone (intrinsic corrector capacity), 20 hours at 33° C.
[4] = HRP-tagged ΔF508-CFTR expressing CFBE41o- cells, compound alone (intrinsic corrector capacity), 20 hours at 33° C., read-out: EC50
[5] = HRP-tagged ΔF508-CFTR CFBE cells, in the presence of 3 μM co-corrector
[6] = HRP-tagged ΔF508-CFTR CFBE cells, in the presence of 3 μM co-corrector, read-out: EC50

T1 sequence (P13569 with tags, fused parts or gaps DEL508-508): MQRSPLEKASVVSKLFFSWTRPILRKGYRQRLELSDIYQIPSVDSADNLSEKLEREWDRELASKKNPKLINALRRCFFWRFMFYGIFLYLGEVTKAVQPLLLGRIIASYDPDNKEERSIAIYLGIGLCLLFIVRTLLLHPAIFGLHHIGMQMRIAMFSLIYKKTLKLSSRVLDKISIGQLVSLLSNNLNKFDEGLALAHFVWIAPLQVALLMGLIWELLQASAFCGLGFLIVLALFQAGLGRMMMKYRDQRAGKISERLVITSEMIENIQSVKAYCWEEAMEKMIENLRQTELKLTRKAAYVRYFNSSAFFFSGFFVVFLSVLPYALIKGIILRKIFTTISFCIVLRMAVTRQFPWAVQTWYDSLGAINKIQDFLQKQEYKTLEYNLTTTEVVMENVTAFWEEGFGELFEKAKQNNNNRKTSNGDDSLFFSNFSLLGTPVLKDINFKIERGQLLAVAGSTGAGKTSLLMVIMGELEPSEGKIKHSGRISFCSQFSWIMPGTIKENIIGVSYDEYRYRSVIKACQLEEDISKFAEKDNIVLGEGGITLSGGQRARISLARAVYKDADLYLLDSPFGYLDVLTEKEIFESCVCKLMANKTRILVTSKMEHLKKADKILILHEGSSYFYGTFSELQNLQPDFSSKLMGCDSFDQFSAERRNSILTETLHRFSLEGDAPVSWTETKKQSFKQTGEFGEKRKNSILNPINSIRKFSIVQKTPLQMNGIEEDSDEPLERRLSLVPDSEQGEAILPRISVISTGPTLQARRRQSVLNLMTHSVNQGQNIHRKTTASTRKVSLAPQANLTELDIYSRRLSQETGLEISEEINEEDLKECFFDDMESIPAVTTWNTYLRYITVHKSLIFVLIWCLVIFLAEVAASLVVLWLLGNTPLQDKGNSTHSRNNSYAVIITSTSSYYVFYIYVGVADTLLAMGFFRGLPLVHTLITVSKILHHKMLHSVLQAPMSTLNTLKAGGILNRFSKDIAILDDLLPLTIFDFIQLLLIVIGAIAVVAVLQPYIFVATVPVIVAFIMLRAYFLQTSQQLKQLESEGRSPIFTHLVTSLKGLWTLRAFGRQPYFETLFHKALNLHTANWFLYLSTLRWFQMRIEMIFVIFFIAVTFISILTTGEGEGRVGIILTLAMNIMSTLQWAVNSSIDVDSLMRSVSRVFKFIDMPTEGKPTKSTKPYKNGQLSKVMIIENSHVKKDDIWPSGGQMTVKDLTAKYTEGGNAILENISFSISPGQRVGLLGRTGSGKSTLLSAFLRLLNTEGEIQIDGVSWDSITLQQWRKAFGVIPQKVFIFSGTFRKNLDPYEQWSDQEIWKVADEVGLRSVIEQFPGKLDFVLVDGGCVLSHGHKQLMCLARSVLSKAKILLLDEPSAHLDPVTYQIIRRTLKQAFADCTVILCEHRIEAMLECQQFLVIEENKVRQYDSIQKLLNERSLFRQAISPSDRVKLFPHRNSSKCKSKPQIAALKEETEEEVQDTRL

SMILES	% Activation (ΔF508-CFTR [1]; [3])	EC50 (ΔF508-CFTR [1]; [4])	% Activation (ΔF508-CFTR [2]; [5])	EC50 (ΔF508-CFTR [2]; [6])	EC50 (ΔF508-CFTR [1])	EC50 (ΔF508-CFTR [2])
CC(=O)N1CCCN(S(=O)(=O)NC(=O)c2cc(OCC3CCOCC3)c3c(C4CCC4)nn(-c4ccccc4)c3n2)CC1 [Compound 357, N-(4-acetyl-1,4-diazepane-1-sulfonyl)-3-cyclobutyl-4-[(oxan-4-yl)methoxy]-1-phenyl-1H-pyrazolo[3,4-b]pyridine-6-carboxamide]	72.83%	115 nM	229.8%	130 nM	–	–
COCC1CCN(c2cc(C(=O)NS(=O)(=O)CCO)nc3c2c(C2CCC2)nn3-c2ccccc2)CC1 [Compound 366, 3-cyclobutyl-N-(2-hydroxyethanesulfonyl)-4-[4-(methoxymethyl)piperidin-1-yl]-1-phenyl-1H-pyrazolo[3,4-b]pyridine-6-carboxamide]	264%	298 nM	443.7%	82.7 nM	–	–
COCC1CCN(c2cc(C(=O)NS(=O)(=O)CCCO)nc3c2c(C2CCC2)nn3-c2ccccc2)CC1 [Compound 367, 3-cyclobutyl-N-(3-hydroxypropane-1-sulfonyl)-4-[4-(methoxymethyl)piperidin-1-yl]-1-phenyl-1H-pyrazolo[3,4-b]pyridine-6-carboxamide]	364.5%	311 nM	526.17%	81.6 nM	–	–
COCC1CCN(c2cc(C(=O)NS(=O)(=O)C3CCNCC3)nc3c2c(C2CCC2)nn3-c2ccccc2)CC1 [Compound 368, 3-cyclobutyl-4-[4-(methoxymethyl)piperidin-1-yl]-1-phenyl-N-(piperidine-4-sulfonyl)-1H-pyrazolo[3,4-b]pyridine-6-carboxamide]	185%	1360 nM	350.23%	361 nM	–	–
CS(=O)(=O)NC(=O)c1cc(N2CCS(=O)(=O)CC2)c2c(C3CCC3)nn(-c3ccccc3)c2n1 [Compound 371, 3-cyclobutyl-4-(1,1-dioxo-1λ^6,4-thiazinan-4-yl)-N-(methanesulfonyl)-1-phenyl-1H-pyrazolo[3,4-b]pyridine-6-carboxamide]	121.3%	2740 nM	271.9%	1930 nM	–	–
COCC1CCN(c2cc(C(=O)NS(=O)(=O)CCNC(=O)OCc3ccccc3)nc3c2c(C2CCC2)nn3-c2ccccc2)CC1 [Compound 373, benzyl [2-({3-cyclobutyl-4-[4-(methoxymethyl)piperidin-1-yl]-1-phenyl-1H-pyrazolo[3,4-b]pyridine-6-carbonyl}sulfamoyl)ethyl]carbamate]	368.2%	73 nM	580.5%	85.8 nM	–	–
COCC1CCN(c2cc(C(=O)NS(=O)(=O)C3(C)CC3)nc3c2c(C2CCC2)nn3-c2ccccc2)CC1 [Compound 374, 3-cyclobutyl-4-[4-(methoxymethyl)piperidin-1-yl]-N-(1-methylcyclopropane-1-sulfonyl)-1-phenyl-1H-pyrazolo[3,4-b]pyridine-6-carboxamide]	240.7%	254 nM	426.05%	196 nM	–	–
COCC1CCN(c2cc(C(=O)NS(=O)(=O)CC(C)C)nc3c2c(C2CCC2)nn3-c2ccccc2)CC1 [Compound 375, 3-cyclobutyl-4-[4-(methoxymethyl)piperidin-1-yl]-N-(2-methylpropane-1-sulfonyl)-1-phenyl-1H-pyrazolo[3,4-b]pyridine-6-carboxamide]	321.6%	571 nM	546.75%	241 nM	–	–
COCC1CCN(c2cc(C(=O)NS(=O)(=O)CC(=O)OC)nc3c2c(C2CCC2)nn3-c2ccccc2)CC1 [Compound 376, methyl ({3-cyclobutyl-4-[4-(methoxymethyl)piperidin-1-yl]-1-phenyl-1H-pyrazolo[3,4-b]pyridine-6-carbonyl}sulfamoyl)acetate]	355.7%	117 nM	496.8%	51.6 nM	–	–
COCC1CCN(c2cc(C(=O)NS(=O)(=O)C3CCN(C(=O)OCc4ccccc4)C3)nc3c2c(C2CCC2)nn3-c2ccccc2)CC1 (centres unmarked) [Compound 377, benzyl 3-({3-cyclobutyl-4-[4-(methoxymethyl)piperidin-1-yl]-1-phenyl-1H-pyrazolo[3,4-b]pyridine-6-carbonyl}sulfamoyl)pyrrolidine-1-carboxylate]	261.3%	129 nM	485.55%	103 nM	–	–
CC(C)c1nn(-c2ccc(F)cc2)c2nc(C(=O)NS(C)(=O)=O)cc(C3CCN(C(=O)OC(C)(C)C)CC3)c12 [Compound 378, tert-butyl 4-[1-(4-fluorophenyl)-6-[(methanesulfonyl)carbamoyl]-3-(propan-2-yl)-1H-pyrazolo[3,4-b]pyridin-4-yl]piperidine-1-carboxylate]	160%	1330 nM	318.6%	658 nM	–	–
O=C(NS(=O)(=O)N1CCOCC1)c1cc(N2CCC(CN3CCCC3)CC2)c2c(C3CCC3)nn(-c3ccccc3)c2n1 [Compound 380, 3-cyclobutyl-N-(morpholine-4-sulfonyl)-1-phenyl-4-{4-[(pyrrolidin-1-yl)methyl]piperidin-1-yl}-1H-pyrazolo[3,4-b]pyridine-6-carboxamide]	131.7%	–	309.17%	–	279 nM	127 nM
O=C(NS(=O)(=O)N1CCOCC1)c1cc(N2CCC(N3CCOCC3)CC2)c2c(C3CCC3)nn(-c3ccccc3)c2n1 [Compound 383, 3-cyclobutyl-N-(morpholine-4-sulfonyl)-4-[4-(morpholin-4-yl)piperidin-1-yl]-1-phenyl-1H-pyrazolo[3,4-b]pyridine-6-carboxamide]	202.9%	–	412.20%	–	–	–
COCC1CCN(c2cc(C(=O)NS(=O)(=O)CC(N)=O)nc3c2c(C2CCC2)nn3-c2ccccc2)CC1 [Compound 384, N-(2-amino-2-oxoethanesulfonyl)-3-cyclobutyl-4-[4-(methoxymethyl)piperidin-1-yl]-1-phenyl-1H-pyrazolo[3,4-b]pyridine-6-carboxamide]	228%	2860 nM	391.35%	1440 nM	–	–
COCC1CCN(c2cc(C(=O)NS(=O)(=O)CCNC(C)=O)nc3c2c(C2CCC2)nn3-c2ccccc2)CC1 [Compound 386, N-(2-acetamidoethanesulfonyl)-3-cyclobutyl-4-[4-(methoxymethyl)piperidin-1-yl]-1-phenyl-1H-pyrazolo[3,4-b]pyridine-6-]	237.85%	2120 nM	385.05%	685 nM	–	–
COCC1CCN(c2cc(C(=O)NS(=O)(=O)C3CCNC3)nc3c2c(C2CCC2)nn3-c2ccccc2)CC1 (centres unmarked) [Compound 387, 3-cyclobutyl-4-[4-(methoxymethyl)piperidin-1-yl]-1-phenyl-N-(pyrrolidine-3-sulfonyl)-1H-pyrazolo[3,4-b]pyridine-6-carboxamide]	60.58%	462 nM	168.9%	161 nM	–	–
COCC1CCN(c2cc(C(=O)NS(=O)(=O)N3CCC(N4CCCC4)CC3)nc3c2c(C2CCC2)nn3-c2ccccc2)CC1 [Compound 388, 3-cyclobutyl-4-[4-(methoxymethyl)piperidin-1-yl]-1-phenyl-N-[4-(pyrrolidin-1-yl)piperidine-1-sulfonyl]-1H-pyrazolo[3,4-b]pyridine-6-carboxamide]	192.8%	–	364.5%	–	218 nM	196 nM
COCC1CCN(c2cc(C(=O)NS(=O)(=O)N3CCC[C@H]3C(=O)N3CCN(C)CC3)nc3c2c(C2CCC2)nn3-c2ccccc2)CC1 [Compound 389, 3-cyclobutyl-4-[4-(methoxymethyl)piperidin-1-yl]-N-[(2S)-2-(4-methylpiperazine-1-carbonyl)pyrrolidine-1-sulfonyl]-1-phenyl-1H-pyrazolo[3,4-b]pyridine-6-carboxamide]	165%	556 nM	305.1%	297 nM	–	–
COCC1CCN(c2cc(C(=O)NS(=O)(=O)N3CCC(N4CCC[C@H]4COC)CC3)nc3c2c(C2CCC2)nn3-c2ccccc2)CC1 [Compound 390, 3-cyclobutyl-4-[4-(methoxymethyl)piperidin-1-yl]-N-{4-[(2S)-2-(methoxymethyl)pyrrolidin-1-yl]piperidine-1-sulfonyl}-1-phenyl-1H-pyrazolo[3,4-b]pyridine-6-carboxamide]	188.2%	177 nM	350.17%	140 nM	–	–

— patent US10259810B2, “N-sulfonylated pyrazolo[3,4-b]pyridin-6-carboxamides and method of use” (AbbVie S.à.r.l., priority 2015, dated 2019)
